One data set relates to SH-SY5Y cells. Briefly: Total ROS/Superoxide detection. The data set is classed as cell-based, human. Conditions: for Increase of ROS levels compared to the control group: inducers without drug pretreatment (Aβ, pyocyanin, or both). As to the method: The Total ROS/Superoxide Detection Kit (ENZ-51010, Enzo) was used according to the kit process for evaluating the protective effects of the treatment groups on SH-SY5Y cells seeded at a 2x10^4 density per well in 96-well plates and Aβ was applied. ROS inhibitor N-acetyl cysteine (NAC) was applied at 5 mM concentration to negative control groups 30 minutes before the experiment and after incubation, 100 μL of “ROS/Superoxide Detection Solution” was added to the wells in the kit. The same procedure was done without the application of ROS inhibitor. Fluorometric analysis of stained cells was analyzed with Cytation 3 Cell Imaging Multi-Mode Reader (BioTek) using 490/525 nm and 550/620 nm filter sets.

In data set [1] the test system is differentiated SH-SY5Y cells. Briefly: Annexin V-PI staining of Aβ-induced cell death, flow cytometry. The data set is classed as cell-based, human. Conditions: for Necrotic effect (Q5-UL): control 1.6%; for Apoptotic effect (early apoptosis + late apoptosis): control 1.9%; for Percentage of living cells (Live): control 96.5%. As for the experimental part:
To determine neuronal apoptosis associated with Aβ exposure, 25x10^3 differentiated SH-SY5Y cells were seeded in 24-well plates and Aβ was applied. After 24 h, cells were trypsinized and staining was performed according to the CF 488A Annexin V and PI Apoptosis Kit (Biotium, USA, Cat. No: 30061) protocol. After washing the cells with 1xPBS, the working solution was prepared by diluting the PI with Annexin V binding buffer included in the kit. 5 μl Annexin V and 2 μl PI working solution were added to the centrifuge tubes and binded with 100 μl Annexin V binding buffer. After the samples were incubated for 30 minutes on ice and in the dark, 400 μl of Annexin V binding buffer was added to each tube and the samples were measured and analyzed in a BD Accuri™ C6 flow cytometry device.
(A flow cytometer gives signals particle by particle.)

In data set [2] the test system is differentiated SH-SY5Y cells. Briefly: Cell viability against Aβ-induced neurotoxicity, xCELLigence. It counts as cell-based, human. As to the method:
Pathological deterioration in AD is mainly associated with overproduction of the Aβ peptide and the Aβ (1–42) variant is the toxic form that is more predominant in Alzheimer’s patients. In this study, a modified oligomeric Aβ (1–42) neurotoxicity analysis protocol was applied in order to elucidate the effects of treatment groups on SH-SY5Y cell viability in the presence of Aβ [56]. In order to model Aβ-induced neurotoxicity in vitro, an oligomeric form of the Aβ1–42 peptide was prepared by diluting with ice-cold Ham’s F12 Nutrient Mixture medium dissolved in PBS containing 0.02 M NaOH at a final concentration of 50 μM and kept in a 37°C incubator for 7 days to form peptide aggregates prior to the experiments. 5x10^3 SH-SY5Y cells were differentiated inside the xCELLigence instrument for 5 days and treated with 100 nM TSA, RG108, givinostat, rifampin; 100 ng/ml LPS+IFN-ɣ or 1 μg/ml CFS+IFN-ɣ for 24 h in order to evaluate neuroprotection. The co-culture was performed in the same way as the neuroinflammation model. Neurotoxicity was obtained instead of neuroinflammation by diluting to 5 μM with fresh medium and adding Aβ1–42 aggregates to the wells for 24 h in 100 μl of medium. Cell viability data was then monitored for 24 h and analyzed within the instrument.

The test system of data set [3] is differentiated SH-SY5Y cells. Nature of the data set: Cell proliferation (cytotoxicity) analysis with xCELLigence, SH-SY5Y. The data set is classed as cell-based, human. As to the method: (§1) Cell proliferation analysis was performed with xCELLigence Real-Time Cell Analysis System to assess TSA, RG108, givinostat, and rifampin concentrations for use in both models. Differentiated SH-SY5Y and HMC3 microglia cells were seeded at a 5x10^3 density per well and incubated 24 h until CI values reached a log phase. The system stopped at the end of 24 h, 100, 10 and 1 μM TSA, givinostat, RG108 and rifampin were applied on current media and the cell viability was tracked. […] Simultaneously, slope plots were drawn using the CI values at 24 and 48 hours, and the statistical significance of the values discovered by assuming the average CI values of the control wells to be 100% was calculated.

The next data set has as its system HMC3 microglia cells. Nature of the data set: Cell proliferation (cytotoxicity) analysis with xCELLigence, HMC3. The data set is classed as cell-based, human. As to the method:
as §1

A further data set has as its system APP/PS1 mice. The arrangement: method as in PMID 33397436. The settings on record: cited from earlier work.
Where [4] appears, read: 30 minutes NAC 5 mM, treated (drugs 100 nM; LPS 100 ng/ml; CFS 1 μg/ml, with IFN-γ) prior to Aβ exposure.
The mark [5] stands for this setting: cells treated (drugs 100 nM; LPS 100 ng/ml; CFS 1 μg/ml, with IFN-γ) before exposure to Aβ, without NAC.
Setting [6] is: pretreatment (drugs 100 nM; LPS 100 ng/ml + IFN-γ; CFS 1 μg/ml + IFN-γ) + 5 μM Aβ 24 h.
Setting [7] is: 24 h pretreatment (drugs 100 nM; CFS 1 μg/ml + IFN-γ; LPS 100 ng/ml + IFN-γ), then 5 μM Aβ (1–42) aggregates 24 h.

pIC50: −log10 of the molar value. Like-named read-outs stand apart in the source and are kept apart here.

By pIC50 is commonly meant −log10 of the IC50, conventionally taken in molar units.

On to “Aβ: oligomeric/aggregated Aβ1–42 peptide used at 5 μM to induce neurotoxicity”, for which the “Increase of total amount of ROS compared to the control group, with NAC” value (“Increase of total amount of ROS … with NAC” for short) with SH-SY5Y cells (30 minutes ROS inhibitor NAC 5 mM, inducers without drug pretreatment (Aβ, or Aβ with pyocyanin)) was 6.62%. Also, the “Increase of ROS levels compared to the control group” value in the data set on SH-SY5Y cells (without NAC) was 43.58%. For the same molecule, in data set [1] (5 μM Aβ alone 24 h), the “Necrotic effect (Q5-UL)” value was 6.7%, the “Apoptotic effect (early apoptosis + late apoptosis)” value (“Apoptotic effect” for short) came out at 8.5% and the “Percentage of living cells (Live)” value was found to be 84.8%. Besides, the “CI values compared to the control group” value in data set [2] (5 μM Aβ (1–42) aggregates alone, 24 h) worked out at 48.5%.

In the case of `CC(/C=C/C(=O)NO)=C\[C@@H](C)C(=O)c1ccc(N(C)C)cc1` [TSA, Trichostatin A], the “Increase of total amount of ROS … with NAC” value with SH-SY5Y cells (setting [4]) turned out to be 0.7%. Also, the “Decrease of total ROS amount according to the Aβ group” value in the data set on SH-SY5Y cells (setting [5]) was determined as 53.43%. Moreover, the “Decrease of total amount of ROS compared to the control group” value in the data set with SH-SY5Y cells (cells treated with compounds (100 nM) before exposure to Aβ, without NAC) worked out at 9.85%. Besides, the “Reduction of differentiated SH-SY5Y cell viability” value is on record as 91.34% in data set [3] (1 μM, 24 hours); 97.97% in data set [3] (1 μM, 48 hours); 97.43% in data set [3] (10 μM, 24 hours); 98.9% in data set [3] (10 μM, 48 hours); 97.86% in data set [3] (100 μM, 24 hours); 99.79% in data set [3] (100 μM, 48 hours). Further, the negative logarithm of the IC50 (pIC50) was 6.22 in data set [3] (from CI values at 24th hour, 1, 10 and 100 μM tested, read-out: IC50 Values 24h SH-SY5Y); 6.51 in data set [3] (from CI values at 48th hour, 1, 10 and 100 μM tested, read-out: IC50 Values 48h SH-SY5Y); 6.81 in the data set on HMC3 microglia cells (from CI values at 48th hour, 1, 10 and 100 μM tested, read-out: IC50 Values 48h HMC3). The “Reduction of HMC3 cell viability compared to the control group” value in the data set with HMC3 microglia cells (1 μM (printed M), 24 hours) was found to be 0.04%; in the data set with HMC3 microglia cells (1 μM (printed M), 48 hours) it was 1.75%; in the data set on HMC3 microglia cells (10 μM, 24 hours) it was 13.88%; in the data set on HMC3 microglia cells (10 μM, 48 hours), 21.94%; in the data set on HMC3 microglia cells (100 μM, 24 hours) it was 31.68%; in the data set on HMC3 microglia cells (100 μM, 48 hours), 51.2%. Besides, the “Necrotic effect (Q5-UL)” value in data set [1] (setting [6]) is recorded as 5.6%. Moreover, in data set [1] (setting [6]), the “Apoptotic effect” value was determined as 5.8%. Further, in data set [1] (setting [6]), the “Percentage of living cells (Live)” value was 88.6%. The “CI values compared to the control group” value in data set [2] (setting [7]) turned out to be 137%. Besides, the “Effect on Aβ plaques and soluble Aβ oligomers in the brain” value in the data set with APP/PS1 mice is “reduce Aβ plaques and soluble Aβ oligomers in the brain”. For the same molecule, the “Effect on learning and memory behaviors” value in the data set with APP/PS1 mice is “improve learning and memory behaviors”.

`CCN(CC)Cc1ccc2cc(COC(=O)Nc3ccc(C(=O)NO)cc3)ccc2c1` [Givinostat, givinostat]: in the data set with SH-SY5Y cells (setting [4]), the “Increase of total amount of ROS … with NAC” value is reported as 22.87%. In the data set on SH-SY5Y cells (setting [5]), the “Decrease of total ROS amount according to the Aβ group” value is given as 30.49%. In the data set with SH-SY5Y cells (cells treated (drugs 100 nM; LPS 100 ng/ml; CFS 1 μg/ml, with IFN-γ) before exposure to Aβ, without NAC, not significant), the “Increase of total amount of ROS compared to the control group” value is reported as 13.09%. Also, the “Reduction of differentiated SH-SY5Y cell viability” value in data set [3] (1 μM, 24 hours) was determined as 88.72%; in data set [3] (1 μM, 48 hours) it was 90.56%; in data set [3] (10 μM, 24 hours), 96.85%; in data set [3] (10 μM, 48 hours) it was 96.9%; in data set [3] (100 μM, 24 hours), 98.06%; in data set [3] (100 μM, 48 hours), 98.77%. Also, the negative logarithm of the IC50 (pIC50) in data set [3] (Homo sapiens, SH-SY5Y, 24 h, from CI values at 24th hour, 1, 10 and 100 μM tested, read-out: IC50 Values 24h SH-SY5Y) is 5.56; in data set [3] (Homo sapiens, SH-SY5Y, 48 h, from CI values at 48th hour, 1, 10 and 100 μM tested, read-out: IC50 Values 48h SH-SY5Y), 5.85; in the data set with HMC3 microglia cells (Homo sapiens, HMC3, 24 h, from CI values at 24th hour, 1, 10 and 100 μM tested, read-out: IC50 Values 24h HMC3), 4.93; with HMC3 microglia cells (Homo sapiens, HMC3, 48 h, from CI values at 48th hour, 1, 10 and 100 μM tested, read-out: IC50 Values 48h HMC3) it was 6.27. Besides, the “Reduction of HMC3 cell viability compared to the control group” value was found to be 35.01% in the data set with HMC3 microglia cells (1 μM (printed M), 24 hours); 62.78% in the data set on HMC3 microglia cells (1 μM (printed M), 48 hours); 58.19% with HMC3 microglia cells (10 μM, 24 hours); 92.67% with HMC3 microglia cells (10 μM, 48 hours); 93.58% in the data set on HMC3 microglia cells (100 μM, 24 hours); 99.29% in the data set on HMC3 microglia cells (100 μM, 48 hours). For the same molecule, in data set [1] (100 nM + 5 μM Aβ), the “Reduction of cell viability compared to the Aβ positive control group” value stood at 0.5%. Also, in data set [1] (setting [6]), the “Necrotic effect (Q5-UL)” value was 7.8%. Moreover, in data set [1] (setting [6]), the “Apoptotic effect” value came out at 7.8%. For the same molecule, the “Percentage of living cells (Live)” value in data set [1] (setting [6]) is given as 84.3%. In addition, in data set [2] (setting [7]), the “CI values compared to the control group” value is given as 136.2%.

As for `Cn1c2cccc(=O)c-2nc2ccccc21` [pyocyanin], the “Decrease of amount of ROS, with NAC” value in the data set with SH-SY5Y cells (30 minutes NAC 5 mM, pyocyanin without Aβ) was 0.85%. Besides, the “Increase of ROS levels compared to the control group” value in the data set on SH-SY5Y cells (without NAC) is listed as 36.49%.

Source of the values: paper PMC8631675, “Neuroprotective effects of some epigenetic modifying drugs’ on Chlamydia pneumoniae-induced neuroinflammation: A novel model” (PLoS ONE, 2021).
